According to ChEMBL document CHEMBL1201862, “PubChem BioAssay data set” (2004):
Active and inactive are the calls of the source.

Experiments:
[1] = tested on: CHO-K1; assay: (§1) Counterscreen for antagonists of the orexin 1 receptor (OX1R; HCRTR1): Homogeneous time resolved fluorescence (HTRF)-based cell-based dose response assay to identify antagonists of the parental CHO-K1 cell line. [Related pubchem assays (depositor defined):AID434989, AID435008, AID463079, AID485270, AID492963, AID492964, AID492965, AID493232, AID504699, AID504701]; type: functional; settings: Cricetulus griseus
[2] = molecular target: T1, Orexin receptor type 2 (Homo sapiens, UniProt O43614); assay: Counterscreen assay for antagonists of the orexin 1 receptor (OX1R; HCRTR1): Homogeneous Time Resolved Fluorescence (HTRF)-based cell-based dose response assay for antagonists of the orexin 2 receptor (OX2R; HCRTR2), run by assay provider.; type: functional
T1 sequence (O43614 whole entry): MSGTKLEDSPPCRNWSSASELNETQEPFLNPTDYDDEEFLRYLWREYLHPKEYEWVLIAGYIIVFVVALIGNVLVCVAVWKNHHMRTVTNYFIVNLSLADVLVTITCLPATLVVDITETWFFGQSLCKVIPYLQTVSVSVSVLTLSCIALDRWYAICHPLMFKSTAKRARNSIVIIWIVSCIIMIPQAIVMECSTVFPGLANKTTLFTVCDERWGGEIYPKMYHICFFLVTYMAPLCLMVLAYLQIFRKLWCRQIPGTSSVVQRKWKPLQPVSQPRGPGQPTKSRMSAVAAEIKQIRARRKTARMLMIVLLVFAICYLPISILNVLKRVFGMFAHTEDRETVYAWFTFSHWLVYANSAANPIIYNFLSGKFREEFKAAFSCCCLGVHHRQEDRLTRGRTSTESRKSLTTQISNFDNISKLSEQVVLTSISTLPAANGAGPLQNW

[3] = as §1, with “Fluorescence-based” for “Homogeneous time resolved fluorescence (HTRF)-based”, “cell-based high throughput” for “cell-based”, “CHO” for “CHO-K1”; type: functional
[4] = molecular target: T2, Orexin/Hypocretin receptor type 1 (Homo sapiens, UniProt O43613); assay: Homogeneous Time Resolved Fluorescence (HTRF)-based cell-based high throughput dose response assay for antagonists of the orexin 1 receptor (OX1R; HCRTR1). [Related pubchem assays (depositor defined):AID434989, AID435008, AID463079, AID485270, AID492963, AID492964, AID492965, AID493232, AID504717, AID504718]; type: functional
T2 sequence (O43613 whole entry): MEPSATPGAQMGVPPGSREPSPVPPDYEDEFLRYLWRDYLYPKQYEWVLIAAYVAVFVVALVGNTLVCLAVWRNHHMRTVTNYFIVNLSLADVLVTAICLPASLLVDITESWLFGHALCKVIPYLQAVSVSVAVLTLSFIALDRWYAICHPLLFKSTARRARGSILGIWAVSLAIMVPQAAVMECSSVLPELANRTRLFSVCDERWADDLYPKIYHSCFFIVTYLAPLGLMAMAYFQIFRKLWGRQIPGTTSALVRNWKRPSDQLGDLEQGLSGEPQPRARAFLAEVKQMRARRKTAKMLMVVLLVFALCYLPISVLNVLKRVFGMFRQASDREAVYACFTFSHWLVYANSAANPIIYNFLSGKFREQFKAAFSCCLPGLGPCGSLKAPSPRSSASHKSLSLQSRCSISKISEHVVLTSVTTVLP

[5] = molecular target: T2, Orexin/Hypocretin receptor type 1; assay: Fluorescence-based cell-based high throughput dose response assay for antagonists of the orexin 1 receptor (OX1R; HCRTR1). [Related pubchem assays (depositor defined):AID434989, AID435008, AID463079, AID485270, AID492963, AID492964, AID492965, AID493232, AID504717, AID504718]; type: functional
[6] = molecular target: T1, Orexin receptor type 2; assay: Counterscreen assay for antagonists of the orexin 1 receptor (OX1R; HCRTR1): Fluorescence-based cell-based dose response assay for antagonists of the orexin 2 receptor (OX2R; HCRTR2), run by assay provider.; type: functional
[7] = molecular target: T3, Tyrosine-protein phosphatase non-receptor type 5 (Homo sapiens, UniProt P54829); assay: STEP phosphatase inhibitors, confirmation, biochemical, fluorescence intensity, uHTS hits (AID 602372); type: functional; settings: read-out: IC50_Mean
T3 sequence (P54829 whole entry): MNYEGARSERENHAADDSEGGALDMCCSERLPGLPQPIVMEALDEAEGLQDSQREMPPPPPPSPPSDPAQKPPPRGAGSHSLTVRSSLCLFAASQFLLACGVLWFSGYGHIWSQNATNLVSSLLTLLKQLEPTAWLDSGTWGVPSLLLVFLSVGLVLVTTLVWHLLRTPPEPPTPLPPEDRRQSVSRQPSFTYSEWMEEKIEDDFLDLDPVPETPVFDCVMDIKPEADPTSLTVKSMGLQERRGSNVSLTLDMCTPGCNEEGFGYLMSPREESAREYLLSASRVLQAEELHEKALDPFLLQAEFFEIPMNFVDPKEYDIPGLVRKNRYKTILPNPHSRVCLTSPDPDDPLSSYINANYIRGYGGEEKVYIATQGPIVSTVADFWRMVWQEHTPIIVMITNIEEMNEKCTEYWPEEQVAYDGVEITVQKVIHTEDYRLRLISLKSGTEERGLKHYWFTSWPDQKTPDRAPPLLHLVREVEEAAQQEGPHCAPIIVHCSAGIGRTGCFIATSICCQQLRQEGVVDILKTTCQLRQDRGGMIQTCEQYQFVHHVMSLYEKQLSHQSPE

[8] = molecular target: T4, Tyrosine-protein phosphatase non-receptor type 11 (Homo sapiens, UniProt Q06124); assay: SHP2 phosphatase inhibition, dose response, selectivity assay for STEP inhibitor project, biochemical (AID 602367); type: functional; settings: read-out: IC50_Mean
T4 sequence (Q06124 whole entry): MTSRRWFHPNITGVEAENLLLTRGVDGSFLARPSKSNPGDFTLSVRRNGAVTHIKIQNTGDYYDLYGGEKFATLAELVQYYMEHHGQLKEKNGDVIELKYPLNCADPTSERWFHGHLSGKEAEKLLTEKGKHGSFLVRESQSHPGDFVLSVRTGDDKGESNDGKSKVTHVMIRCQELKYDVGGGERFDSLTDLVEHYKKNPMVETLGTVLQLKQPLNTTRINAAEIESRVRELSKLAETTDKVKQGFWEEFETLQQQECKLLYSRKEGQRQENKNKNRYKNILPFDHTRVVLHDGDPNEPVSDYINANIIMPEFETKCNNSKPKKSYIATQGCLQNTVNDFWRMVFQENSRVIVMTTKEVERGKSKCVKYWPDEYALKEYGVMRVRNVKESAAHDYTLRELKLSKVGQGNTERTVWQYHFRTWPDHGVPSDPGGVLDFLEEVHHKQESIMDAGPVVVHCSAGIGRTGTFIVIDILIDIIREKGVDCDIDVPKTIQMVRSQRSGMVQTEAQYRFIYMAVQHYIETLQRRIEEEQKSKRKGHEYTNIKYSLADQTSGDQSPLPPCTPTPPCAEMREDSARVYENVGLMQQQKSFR

[9] = molecular target: Dual specificity protein phosphatase 3 (Homo sapiens, UniProt P51452); assay: VHR phosphatase inhibition, dose response, selectivity assay for STEP inhibitor project, biochemical (AID 602374); type: functional; settings: read-out: IC50_Mean
[10] = molecular target: T5, Apoptotic protease-activating factor 1 (Homo sapiens, UniProt O14727); assay: SAR analysis of small molecule Activators of Apaf-1 in a Fluorescent assay.; type: functional; settings: read-out: EC50_Mean;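 further: caspase-3 cleavage of fluorogenic Rh110 DEVD substrate downstream of apoptosome activation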
T5 sequence (O14727 whole entry): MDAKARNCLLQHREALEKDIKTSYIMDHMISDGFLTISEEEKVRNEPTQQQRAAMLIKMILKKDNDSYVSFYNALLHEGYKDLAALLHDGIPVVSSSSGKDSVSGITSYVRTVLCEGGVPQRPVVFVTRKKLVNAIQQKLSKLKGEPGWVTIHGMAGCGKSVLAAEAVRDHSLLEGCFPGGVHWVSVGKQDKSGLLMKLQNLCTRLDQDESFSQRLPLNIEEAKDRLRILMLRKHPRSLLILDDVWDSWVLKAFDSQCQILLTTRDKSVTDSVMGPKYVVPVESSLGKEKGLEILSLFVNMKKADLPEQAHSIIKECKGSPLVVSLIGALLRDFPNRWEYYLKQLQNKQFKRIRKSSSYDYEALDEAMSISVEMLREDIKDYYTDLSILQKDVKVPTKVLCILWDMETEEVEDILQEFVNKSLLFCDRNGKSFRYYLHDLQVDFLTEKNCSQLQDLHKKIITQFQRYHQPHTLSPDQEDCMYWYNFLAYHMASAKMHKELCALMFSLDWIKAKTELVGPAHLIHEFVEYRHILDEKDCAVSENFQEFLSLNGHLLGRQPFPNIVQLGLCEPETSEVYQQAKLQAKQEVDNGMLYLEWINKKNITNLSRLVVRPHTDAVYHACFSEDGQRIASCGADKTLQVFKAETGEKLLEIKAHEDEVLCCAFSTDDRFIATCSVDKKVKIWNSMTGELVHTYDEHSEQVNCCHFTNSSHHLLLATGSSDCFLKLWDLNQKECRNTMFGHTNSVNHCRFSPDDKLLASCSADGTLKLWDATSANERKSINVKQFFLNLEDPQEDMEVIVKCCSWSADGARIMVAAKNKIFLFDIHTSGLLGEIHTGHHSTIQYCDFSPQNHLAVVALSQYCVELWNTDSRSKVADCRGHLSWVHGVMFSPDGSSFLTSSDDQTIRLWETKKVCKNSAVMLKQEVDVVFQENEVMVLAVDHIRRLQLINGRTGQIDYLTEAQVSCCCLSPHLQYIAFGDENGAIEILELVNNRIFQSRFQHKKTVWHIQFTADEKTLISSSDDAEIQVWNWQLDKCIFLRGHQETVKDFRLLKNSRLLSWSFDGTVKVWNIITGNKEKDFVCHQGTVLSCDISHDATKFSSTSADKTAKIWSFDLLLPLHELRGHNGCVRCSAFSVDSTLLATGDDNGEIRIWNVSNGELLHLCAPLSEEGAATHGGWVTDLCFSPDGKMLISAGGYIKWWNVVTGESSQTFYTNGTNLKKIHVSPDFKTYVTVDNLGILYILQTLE

[11] = molecular target: T6, Cytochrome P450 1A2 (Homo sapiens, UniProt P05177);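 further: PubChem cytochrome P450 panel assay, CYP1A2 panel member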
T6 sequence (P05177 whole entry): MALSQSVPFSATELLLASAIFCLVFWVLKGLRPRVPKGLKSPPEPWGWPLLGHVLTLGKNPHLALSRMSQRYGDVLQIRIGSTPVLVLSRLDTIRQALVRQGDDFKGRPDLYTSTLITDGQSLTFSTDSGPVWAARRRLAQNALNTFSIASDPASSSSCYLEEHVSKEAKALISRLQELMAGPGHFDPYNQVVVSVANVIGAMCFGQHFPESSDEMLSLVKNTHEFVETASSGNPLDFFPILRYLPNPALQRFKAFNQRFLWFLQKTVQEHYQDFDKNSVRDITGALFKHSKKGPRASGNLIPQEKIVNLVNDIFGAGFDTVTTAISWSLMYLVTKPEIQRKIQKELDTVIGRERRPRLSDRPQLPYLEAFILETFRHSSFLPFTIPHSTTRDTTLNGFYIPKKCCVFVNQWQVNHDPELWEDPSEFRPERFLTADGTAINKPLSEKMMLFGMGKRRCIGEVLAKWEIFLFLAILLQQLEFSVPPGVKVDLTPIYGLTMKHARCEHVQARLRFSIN

[12] = inhibitors of firefly luciferase expression or activity, dose response, H4 neuroglioma cells, luminescence (AID 1990); type: functional, cell-based
[13] = molecular target: T7, Mitochondrial peptide methionine sulfoxide reductase (Bos taurus, UniProt P54149); type: functional;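 further: absorbance read-out, biochemical high-throughput dose-response screen for MsrA inhibitors, confirmatory; recombinant bovine MsrA coupled to E. coli TrxB with NADPH and selenocystamine; potency is for inhibitors of MsrA activity on DMSO substrate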
T7 sequence (P54149 whole entry): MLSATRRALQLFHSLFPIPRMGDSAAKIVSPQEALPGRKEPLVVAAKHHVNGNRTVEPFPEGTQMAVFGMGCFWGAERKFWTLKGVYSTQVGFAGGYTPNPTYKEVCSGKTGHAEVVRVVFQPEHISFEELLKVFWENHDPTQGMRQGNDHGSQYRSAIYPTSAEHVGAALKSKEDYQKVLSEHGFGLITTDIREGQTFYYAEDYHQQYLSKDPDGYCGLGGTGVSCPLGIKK

[14] = inhibitors of SNCA 5'UTR-driven reporter translation, confirmation, H4 neuroglioma cells, luminescence (AID 1988); type: functional, cell-based
[15] = Luminescence Cell-Based Dose Response HTS to Identify Inhibitors of 5'UTR Stem-Loop Driven Prion Protein mRNA Translation in H4 Neuroglioblastoma Cells. [Related pubchem assays: 1827 (Project Summary), 1813 (Primary HTS)]; type: functional

Dual specificity protein phosphatase 3, sequence (P51452 whole entry): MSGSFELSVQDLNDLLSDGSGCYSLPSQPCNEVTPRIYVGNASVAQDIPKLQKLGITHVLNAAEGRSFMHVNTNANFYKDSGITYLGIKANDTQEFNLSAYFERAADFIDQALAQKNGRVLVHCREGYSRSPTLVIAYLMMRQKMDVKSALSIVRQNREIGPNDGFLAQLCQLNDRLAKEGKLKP

With `C=CCn1c(SCC(=O)Nc2cc3oc4ccccc4c3cc2OC)nnc1-c1cnccn1` the IC50 [1] was > 66.2 µM (inactive), the IC50 [2] was > 50 µM (inactive) and the IC50 [3] was > 49.7 µM (inactive). The IC50 [4] was 339 nM (active), the IC50 [5] was 3.14 µM (active) and the IC50 [6] was 10.4 µM (inactive).
With `CSc1cccc(NC(=O)C2CCCN(S(=O)(=O)c3ccc(F)cc3)C2)c1` (stereo unspecified) the IC50 [1] was > 66.2 µM (inactive), the IC50 [2] was 14.2 µM (inactive) and the IC50 [3] was > 49.8 µM (inactive). For the same compound, the IC50 [4] was 1590 nM (active), the IC50 [5] was 10.4 µM (inactive) and the IC50 [6] was 8.4 µM (active).
In the case of `Cn1cc(CC(=O)Nc2cccc(C#N)c2)c2ccccc21`, the IC50 [7] is reported as > 80 µM (inactive), the IC50 [8] is reported as > 80 µM (inactive) and the IC50 [9] is reported as 51.9 µM (inactive).
In the case of `Cc1csc2c(=O)sc(NC(=O)c3ccco3)nc12`, the EC50 [10] is reported as > 100 µM (inactive).
For `Cc1cccc(NC(=O)NNC(=O)c2cc(-c3ccccc3Cl)nc3ccccc23)c1`, the IC50 [1] was > 66.3 µM (inactive), the IC50 [2] was 27.1 µM (inactive) and the AC50 [11] was 15.8 µM (inconclusive). For the same compound, the IC50 [3] was 48 µM (inactive), the IC50 [4] was 815 nM (active) and the IC50 [5] was 13.5 µM (inactive). The IC50 [6] was 16.4 µM (inactive).
In the case of `O=[N+]([O-])c1c(Nc2ccccc2O)cc(N2CCOCC2)c2nonc12`, the EC50 [12] is reported as 25.1 µM (active), the IC50 [13] is reported as 67.7 µM (inactive) and the EC50 [14] is reported as 111 µM (active). The EC50 [15] was 30.5 µM (active).
For `COc1ccc(NC(=S)N2CCC(N(C)CC3CCCO3)CC2)cc1Cl` (stereo unspecified), the IC50 [7] was 27.2 µM (inactive), the IC50 [8] was 3.65 µM (active) and the IC50 [9] was 1.37 µM (active).
For `CC(Cc1ccccc1)C(=O)O` (stereo unspecified), the EC50 [10] was > 100 µM (inactive).
